Assay results taken from ChEMBL document CHEMBL1121897, “Synthesis and antihypertensive activity of new 6-heteroaryl-3-hydrazinopyridazine derivatives” (J Med Chem, 1981).

Columns and labels:
[1] = Acute toxicity was measured as LD50 in mice after ip administration; assay type: organism-based; conditions: mouse, in vivo
Rattus norvegicus [2] = experiment: Hypotensive activity was measured as ED20 which is the dose lowered the normal arterial pressure in anesthetized rat by 20% after iv administration; assay type: functional, Artery
Rattus norvegicus [3] = experiment: Relative potency of compound was measured in anesthetized rats after iv administration; assay type: functional
Rattus norvegicus [4] = experiment: Antihypertensive activity was measured as ED20 which is the dose lowered the normal arterial pressure in conscious SH rats by 20% after po administration; assay type: functional, Artery
Rattus norvegicus [5] = experiment: Relative potency of compound was measured in conscious SH rats after po administration; assay type: functional
Rattus norvegicus [6] = experiment: Relative potency of compound was measured in anesthetized rats after iv administration.; assay type: functional
Rattus norvegicus [7] = experiment: Hypotensive activity was measured as ED20 which is the dose lowered the normal arterial pressure in anesthetized rats by 20% after iv administration.; assay type: functional, Artery
Rattus norvegicus [8] = experiment: Relative potency of compound was measured in anesthetized rats after ip administration; assay type: functional
Rattus norvegicus [9] = experiment: Hypotensive activity was measured as ED20 which is the dose lowered the normal arterial pressure in anesthetized rats by 20% after iv administration; assay type: functional, Artery
[10] = Acute toxicity was measured as LD50 in mice after ip administration.; assay type: organism-based; conditions: mouse, in vivo
Rattus norvegicus [11] = experiment: Antihypertensive activity was measured as ED20 which is the dose lowered the normal arterial pressure in conscious SH rats by 20% after po administration.; assay type: functional, Artery
Rattus norvegicus [12] = experiment: Relative potency of compound was measured in conscious SH rats after po administration.; assay type: functional
Rattus norvegicus [13] = experiment: Relative potency of compound was measured in anesthetized rats after ip administration.; assay type: functional
Rattus norvegicus [14] = experiment: Hypotensive activity was measured as ED20 which is the dose lowered the normal arterial pressure in anesthetized rats by 20% after ip administration.; assay type: functional, Artery

## Cl.NNc1ccc(-n2cccc2)nn1
[1]
  LD50: 389 µmol/kg
Rattus norvegicus [2]
  ED20: 0.423 µM/kg
Rattus norvegicus [3]
  Relative potency: 1.06
Rattus norvegicus [4]
  ED20: 40.1 µM/kg
Rattus norvegicus [5]
  Relative potency: 0.9

## CC(C)=NNc1ccc(-n2cccc2)nn1.Cl
Rattus norvegicus [6]
  Relative potency: 0.1
Rattus norvegicus [7]
  ED20: 4.65 µM/kg

## Cc1ccc(C)n1-c1ccc(NN)nn1.Cl
Rattus norvegicus [8]
  Relative potency: 0.06
Rattus norvegicus [9]
  ED20: 8.02 µM/kg

## CC(C)=C/C(C)=N\Nc1ccc(-n2cccc2)nn1.Cl
Rattus norvegicus [6]
  Relative potency: 0.25
Rattus norvegicus [7]
  ED20: 1.77 µM/kg

## NNc1ccc(-c2ccc(Cl)s2)nn1
Rattus norvegicus [8]
  Relative potency: 0.19
Rattus norvegicus [9]
  ED20: 9.51 µM/kg

## CCc1nccn1-c1ccc(NN=C(C)C)nn1
[10]
  LD50: 508 µmol/kg
Rattus norvegicus [6]
  Relative potency: 1.82
Rattus norvegicus [11]
  ED20: 10.2 µM/kg
Rattus norvegicus [7]
  ED20: 0.247 µM/kg
Rattus norvegicus [12]
  Relative potency: 3.54

## NNc1ccc(-n2c3ccccc3c3ccccc32)nn1
Rattus norvegicus [8]
  Relative potency: <0.11

## NNc1ccc(-c2cccs2)nn1
Rattus norvegicus [8]
  Relative potency: 1.08
[1]
  LD50: 521 µmol/kg
Rattus norvegicus [9]
  ED20: 0.41 µM/kg

## Cc1nccn1-c1ccc(NN)nn1
Rattus norvegicus [8]
  Relative potency: 2.75
[1]
  LD50: 1020 µmol/kg
Rattus norvegicus [4]
  ED20: 7.42 µM/kg
Rattus norvegicus [9]
  ED20: 0.163 µM/kg
Rattus norvegicus [5]
  Relative potency: 4.88

## NNc1ccc(-n2ccnc2)nn1
Rattus norvegicus [8]
  Relative potency: 0.17
[1]
  LD50: 853 µmol/kg
Rattus norvegicus [9]
  ED20: 2.64 µM/kg

## CCc1nccn1-c1ccc(NN)nn1
Rattus norvegicus [8]
  Relative potency: 1.43
[1]
  LD50: 765 µmol/kg
Rattus norvegicus [4]
  ED20: 14.3 µM/kg
Rattus norvegicus [9]
  ED20: 0.313 µM/kg
Rattus norvegicus [5]
  Relative potency: 2.52

## NNc1ccc(-n2cncn2)nn1
Rattus norvegicus [8]
  Relative potency: 0.17
[1]
  LD50: 262 µmol/kg

## NNc1ccc(-n2ccc3ccccc32)nn1
Rattus norvegicus [8]
  Relative potency: 0.22
[1]
  LD50: 206 µmol/kg
Rattus norvegicus [9]
  ED20: 2.06 µM/kg

## NNc1ccc(-n2cccn2)nn1
[1]
  LD50: 387 µmol/kg
Rattus norvegicus [12]
  Relative potency: 1.32
Rattus norvegicus [4]
  ED20: 27.3 µM/kg
Rattus norvegicus [9]
  ED20: 0.83 µM/kg

## NNc1ccc(-n2cccc2)[n+]([O-])n1
Rattus norvegicus [13]
  Relative potency: <0.34
Rattus norvegicus [14]
  ED20: >5.24 µM/kg

## CC(C)=NNc1ccc(-n2ccnc2C)nn1
[10]
  LD50: 430 µmol/kg
Rattus norvegicus [6]
  Relative potency: 1.86
Rattus norvegicus [11]
  ED20: 10.7 µM/kg
Rattus norvegicus [7]
  ED20: 0.242 µM/kg
Rattus norvegicus [12]
  Relative potency: 3.37

## N/N=c1\[nH][nH]/c(=N\N)c2ccccc12 [DIHYDRALAZINE]
[10]
  LD50: 1080 µmol/kg
Rattus norvegicus [14]
  ED20: 1.78 µM/kg
Rattus norvegicus [6]
  Relative potency: 1
Rattus norvegicus [11]
  ED20: 36.1 µM/kg
Rattus norvegicus [7]
  ED20: 0.449 µM/kg
Rattus norvegicus [12]
  Relative potency: 1
